Reference: publication PMC4104029, “Mechanism of Action of Compound-13: An α1-Selective Small Molecule Activator of AMPK” (Chemistry & Biology, 2014)

Experiments:
PP2Cα = biological target: T1, PP2Cα (Homo sapiens, UniProt P35813); assay: PP2Cα activity on synthetic peptide substrate; assay type: biochemical; conditions: synthetic peptide substrate EFLR(pT)SCGS
T1 construct: purchased Division of Signal Transduction Therapy (DSTT, Dundee); host or cells: E. coli
Description: AMPKα1β1γ1 or α2β1γ1 was dephosphorylated in vitro with PP2Cα in 50 mM HEPES pH 7.4, 10 mM MgCl2, 0.1 mM EGTA, 0.03% BRIJ-35, 1 mM DTT, and the indicated compounds for 15 min at 30°C. Mg^2+ was omitted from the negative control. Reactions were terminated by 20-fold dilution and storage on ice. AMPK activity was assayed under standard conditions in the presence of saturating AMP (200 μM). The results are expressed as percentage activity of the negative control. In control experiments, PP2Cα activity was determined in reactions containing 50 mM TES pH 7.4, 0.1 mM EGTA, 25 mM MgCl2, 0.01% BRIJ-35, 0.02% (v/v) 2-mercaptoethanol, and 100 μM EFLR(pT)SCGS (168–176 AMPKα2). Liberated phosphate was determined using malachite green ([Baykov et al., 1988]).
(§1) Supplemental Figure Legends:
Figure S1, related to Figures 1-3. […] (A) Heterotrimeric AMPK complexes (10 ng) produced in both Sf9 (Sigma and Signalchem) and E.coli (in our laboratory) were analysed by Western blotting using isoform specific antibodies. […]
(§2) Figure S3, related to Figure 2. […] Results are expressed as mean Pi incorporated in nmol.min-1.mg-1 ± SD. […] Results are expressed as fold increase in activity relative to controls in the absence of compound ± SD.
(§3) (E) C2 and AMP displace a GST-AMPKγ2 subunit fusion from ATP-γ-Sepharose. […] The presence of eluted AMPKγ2 was analysed by SDS-PAGE and staining with colloidal Coomassie. […]

[1] = tested on: panel of 138 protein kinases; assay: Kinase inhibition screen; assay type: biochemical; conditions: 10 μM
Description: as §1
Figure S1, related to Figures 1-3. Subunit composition of AMPK preparations used in this study. (A) Heterotrimeric AMPK complexes (10 ng) produced in both Sf9 (Sigma and Signalchem) and E.coli (in our laboratory) were analysed by Western blotting using isoform specific antibodies. Note that both the α2/α1-HOOK and α2/α1-LOOP chimeras are no longer recognised by the anti-α2 antibody as the epitope has been replaced (see Fig S4). (B) Heterotrimeric AMPK α2/α1 chimeric complexes expressed in E.coli (2 μg) were separated by SDS-PAGE and stained with Coomassie G-250. Arrows indicate the position of the […]
Figure S2, related to Figure 1. C2 has negligible effects on a panel of 138 protein kinases.
Kinase inhibition screen was performed by the International Centre for Kinase profiling (Dundee). Assays were performed in duplicate using 10 µM C2 and are representative of two independent screens. Results are shown in rank order as mean % activity compared with controls in the absence of compound ± SD. […]
as §2, §3

whole-body lipogenesis = conditions: among a series of prodrugs; ref Gómez-Galeno et al., 2010; cited from earlier work

T1 sequence (P35813 whole entry, species assumed): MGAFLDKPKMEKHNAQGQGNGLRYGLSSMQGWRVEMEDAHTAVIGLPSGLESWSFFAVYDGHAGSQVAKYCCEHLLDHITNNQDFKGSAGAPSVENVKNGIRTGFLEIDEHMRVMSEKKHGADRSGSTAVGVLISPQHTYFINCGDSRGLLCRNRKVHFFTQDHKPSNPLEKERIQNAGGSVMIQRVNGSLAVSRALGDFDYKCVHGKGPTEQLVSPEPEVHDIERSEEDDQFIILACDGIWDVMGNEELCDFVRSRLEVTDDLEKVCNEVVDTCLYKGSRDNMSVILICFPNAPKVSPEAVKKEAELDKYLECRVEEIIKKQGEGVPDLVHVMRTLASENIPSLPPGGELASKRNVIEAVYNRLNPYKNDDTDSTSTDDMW

| Compound | direct effect on PP2Cα activity (PP2Cα) | effect on upstream kinases of AMPK ([1]; LKB1, CaMKKβ, and TAK1) | effect on kinase activity ([1]; includes AMPK-related kinase family) | inhibition of whole-body lipogenesis (whole-body lipogenesis) |
| --- | --- | --- | --- | --- |
| O=P(O)(O)c1ccc(-c2cc(O)on2)o1 [Compound C2, 5-(5-hydroxyl-isoxazol-3-yl)-furan-2-phosphonic acid] | no direct effect | did not affect | majority were not affected |  |
| CC(C)C(=O)OCOP(=O)(OCOC(=O)C(C)C)c1ccc(C2=NOC(=O)C2)o1 [Compound C13] |  |  |  | most potent inhibition |
